Row | SMILES | melting point [°C]
1 | CCCCCCCCCCCCc1cc2c(cc1CCCCCCCCCCCC)C(=O)c1c(c(O)c3cc(CCCCCCCCCCCC)c(CCCCCCCCCCCC)cc3c1O)C2=O | 66 to 76
2 | CCC(C)(C)c1ccc(OCC(=O)Nc2cccc(C(=O)Nc3[nH]n(-c4c(Cl)cc(Cl)cc4Cl)c(=O)c3-n3nnn(-c4ccccc4)c3=S)c2)c(C(C)(C)CC)c1 | 169 to 171
3 | CC(=O)OC(CN1C(=O)C2(CC(C)(C)N(C(C)=O)C(C)(C)C2)OC12CCCCCCCCCCC2)CN1C(=O)C2(CC(C)(C)N(C(C)=O)C(C)(C)C2)OC12CCCCCCCCCCC2 | 122
4 | CC(=O)Nc1c(I)c(C(=O)N(C)CC(O)C(O)C(O)C(O)CO)c(I)c(N(C)C(C)=O)c1I (stereo unspecified) | 110 to 130
5 | CC(C)(C)c1cc(-c2cc(C(C)(C)C)cc(C(C)(C)C)c2Op2oc3ccccc3c3ccccc3o2)c(Op2oc3ccccc3c3ccccc3o2)c(C(C)(C)C)c1 | 80
6 | O=[N+]([O-])c1ccccc1N1CCc2cc(Br)ccc21 | 112 to 114
7 | NCC1Cc2cc(F)cc(-c3ccoc3)c2O1 (stereo unspecified) | 236 to 239
8 | CCCCc1c(CC[Si](Cl)(Cl)Cl)c(CC[Si](Cl)(Cl)Cl)c(CC[Si](Cl)(Cl)Cl)c(CC[Si](Cl)(Cl)Cl)c1CC[Si](Cl)(Cl)Cl | 228 to 235
9 | Cc1ccc2cccc(OCc3c(Cl)ccc(S(=O)(=O)N4CCC[C@H]4C(=O)NC4CCN(C(=O)CN(C=NC(=O)OC(C)(C)C)NC(=O)OC(C)(C)C)CC4)c3Cl)c2n1 | 123
10 | CSC(=NS(=O)(=O)c1ccccc1)c1ccccc1 | 150 to 155
11 | CS(C)(=O)=NC(=O)c1cc(O)ccc1[N+](=O)[O-] | 146 to 149
12 | CCCCCCCC/C=C\CCCCCCCCNC(=O)OCCCCCCCCCCCCNC(=O)OC1CCN(C(=O)Oc2ccc(Oc3ccccc3)cc2)CC1 | 83 to 84
13 | CCCCN(c1nc(N(CCCC)C2CC(C)(C)N(OCC(C)(C)O)C(C)(C)C2)nc(N(CCCC)C2CC(C)(C)N(OCC(C)(C)O)C(C)(C)C2)n1)C1CC(C)(C)N(OCC(C)(C)O)C(C)(C)C1 | 172 to 176
14 | CCCCCCCCCCCCCCCCS(=O)(=O)Nc1ccc2c(c1)C(NS(=O)(=O)CCCCCCCCCCCCCCCC)(c1ccccc1)C=N2 (stereo unspecified) | 210 to 212
15 | O=C(Nc1ccc(Cl)cc1)c1ccc(-c2nn[nH]n2)c(NC(=O)c2sc3ccccc3c2Cl)c1 | > 250
16 | CCOC(=O)OC1=C(c2cc(C)ccc2C)C(=O)NC1CC1CCS(=O)(=NC(=O)C(F)(F)F)CC1 (stereo unspecified) | 87 to 89
17 | Cc1cc(F)c(-n2nc(C(F)(F)F)nc2NC(=O)C(F)(F)F)cc1C(SC(c1cc(-n2nc(C(F)(F)F)nc2NC(=O)C(F)(F)F)c(F)cc1C)C(F)(F)F)C(F)(F)F (stereo unspecified) | 122 to 125
18 | CC(C)(C)OC(=O)NC(Cc1cc(I)c(Oc2cc(I)c(OCC3CO3)c(I)c2)c(I)c1)C(=O)OCC1CO1 (stereo unspecified) | 105
19 | CN(C)C(=O)c1cc2c(nc(C3CC3)n2C)c(O)c1CCC(O)c1ccccc1 (stereo unspecified) | 92 to 94
20 | CC(C)[C@H](NC(=O)N(C)Cc1cscn1)C(=O)N[C@@H](Cc1ccccc1)[C@H](O)[C@@H](O)[C@H](Cc1ccccc1)NC(=O)[C@@H](NC(=O)N(C)Cc1csc(N)n1)C(C)C | 118 to 120
21 | CC(=O)c1ccc(-n2c(-c3sc(Nc4ccc(Cl)cc4)nc3C)nc3ccccc3c2=O)cc1 | 209 to 210
22 | CCCCCCCCCCCCCC(=O)Nc1ccc(Cl)c(NC2=NN(c3c(Cl)cc(Cl)cc3Cl)C(=O)C2SCCCCOc2cccc(C)c2)c1 (stereo unspecified) | 123 to 124
23 | CC(C)CCCC(C)C1CCC2C3CC=C4CC(N(CCCNC(=O)CCNC(=O)CCNC(=O)CCCCCNc5ccc([N+](=O)[O-])cc5[N+](=O)[O-])S(=O)(=O)c5ccccc5[N+](=O)[O-])CCC4(C)C3CCC12C (stereo unspecified) | 106 to 108

Row | SMILES | melting point [°C]
24 | CCCCCCCCOc1ncc(-c2ccc(C(OC(c3ccc(-c4cnc(OCCCCCCCC)nc4)cc3)C3COC4(CCCCC4)O3)C3COC4(CCCCC4)O3)cc2)cn1 (stereo unspecified) | 93.4
25 | CN=S(=O)(Cc1ccc(Cl)nc1)c1nc(-c2ccc(OC)cc2)cs1 (stereo unspecified) | 160 to 163
26 | COc1cc(OC)c(/C=C/C(c2ccc(OC)c(NC(C)=O)c2)S(=O)(=O)C(/C=C/c2c(OC)cc(OC)cc2OC)c2ccc(OC)c(NC(C)=O)c2)c(OC)c1 (stereo unspecified) | 220 to 223
27 | CCC1(O)CC(OC2CC(N(C)C)C(OC3CC(O)C(OC4CCC(=O)C(C)O4)C(C)O3)C(C)O2)c2c(cc3c(c2O)C(=O)c2c(O)cccc2C3=O)C1C(=O)OC (stereo unspecified) | 148
28 | CCCCN(CCCC)c1ccc(C=Cc2ccc(C=CC3=C(C#N)C(=C(C#N)C#N)OC3(C)C(F)(F)F)s2)c(O[Si](c2ccccc2)(c2ccccc2)C(C)(C)C)c1 (stereo unspecified) | 186 to 187
29 | CC(=O)OCC(COC(C)=O)NC(=O)c1c(I)c(C(=O)NC(COC(C)=O)COC(C)=O)c(I)c(N2CCC(Br)C2=O)c1I (stereo unspecified) | 232 to 234
30 | N=S(=O)(c1ccccc1)c1cccnc1 (stereo unspecified) | 109
31 | O=S(=O)(C(/C=C/c1ccc(I)cc1)c1ccc(Br)cc1)C(/C=C/c1ccc(I)cc1)c1ccc(Br)cc1 (stereo unspecified) | 201 to 203
32 | CC(C)(C)c1cc(-c2cc(C(C)(C)C)cc(C(C)(C)C)c2OCP(=O)(c2ccccc2)c2ccccc2)c(OCP(=O)(c2ccccc2)c2ccccc2)c(C(C)(C)C)c1 | 211 to 212
33 | CC(O)CN(C)C (stereo unspecified) | -40
34 | C=CCN1C(C)(C)CC(N(CCCC)c2nc(N(CCCC)C3CC(C)(C)N(CC=C)C(C)(C)C3)nc(N(CCCC)C3CC(C)(C)N(CC=C)C(C)(C)C3)n2)CC1(C)C | 161 to 163
35 | CCN(C(=O)NC)C1C(Cl)=C(OC2=C(Cl)C(N(CC)C(=O)NC)C(c3ccccc3C(F)(F)F)([N+](=O)[O-])C=C2)C=CC1(c1ccccc1C(F)(F)F)[N+](=O)[O-] (stereo unspecified) | 128
36 | COc1cc(OC)c(/C=C/C(c2ccc(OC)c(NC(=O)CN3CCN(C)CC3)c2)S(=O)(=O)C(/C=C/c2c(OC)cc(OC)cc2OC)c2ccc(OC)c(NC(=O)CN3CCN(C)CC3)c2)c(OC)c1 (stereo unspecified) | 176 to 178
37 | C[Si](C)(C)CCS(=O)(=O)N=S(=O)(c1ccc(N)cc1)C1CC1 (racemic) | 137 to 138
38 | CCCCCCCCCCCCc1ccsc1-c1ccc2c(c1)=C(C(C#N)C#N)c1cc3c(cc1=2)C(C(C#N)C#N)=c1cc(-c2sccc2CCCCCCCCCCCC)ccc1=3 | 232 to 233
39 | [C-]#[N+]c1c(Cl)cc(OC)cc1Cl | 110 to 112
40 | Cc1c(NC(=O)c2cccc(OCC(=O)NCCNC(=O)COc3cccc(C(=O)O)c3)c2)c2ccccn2c1C(=O)c1ccc(NC(=O)C(F)(F)F)c(C(=O)OCc2ccccc2)c1 | 197
41 | CS(C)(=O)=NC(=O)c1cc(Oc2ccc(C(F)(F)F)cc2Cl)ccc1Cl | 128 to 131
42 | CCCCCCCCCCCCSc1c(SCCCCCCCCCCCC)c(SCCCCCCCCCCCC)c(SCCCCCCCCCCCC)c(SCCCCCCCCCCCC)c1SCCCCCCCCCCCC | 44 to 45
43 | CC1=NN(CCCc2ccccc2)C(=O)C1 | 103 to 105
44 | NC(=O)c1c(C(=O)O)cnn1-c1ccccc1 | 234 to 235
45 | O=c1cc(-c2ccc(OCCOCCOCCOCCOCCOCCOCCOCCOCCOc3ccc(-c4cc(=O)c5c(O)cc(O)cc5o4)cc3)cc2)oc2cc(O)cc(O)c12 | 135 to 137
46 | CC(=O)OCC=C(C)CCC=C(C)CCC=C(C)CCC=C(C)CCC=C(C)CCC=C(C)CCC=C(C)CCC=C(C)CCC=C(C)CCC=C(C)CCC=C(C)C | 36 to 37
